Laboratory results as given in ChEMBL document CHEMBL5532661, “Discovery of a Novel Glucagon-like Peptide-1 (GLP-1) Analogue from Bullfrog and Investigation of Its Potential for Designing GLP-1-Based Multiagonists” (J Med Chem, 2024).
Numbered stars: 1 amine (or outer) side, 2 acyl side, 3 side chain; on linkers, the order of the positions; unused ones are H or OH. Square brackets hold non-standard residues; d marks the D form. Side chains are listed from the residue outwards. Peptide text beside a SMILES is read from it. * marks the point of attachment. C20 diacid = O=C(O)CCCCCCCCCCCCCCCCCCC(=O)*; C18 diacid = O=C(O)CCCCCCCCCCCCCCCCC(=O)*; γGlu = O=C(O)[C@H](CCC(=O)[*:2])N[*:1]; Palmitoyl = CCCCCCCCCCCCCCCC(=O)*; AEEA = NCCOCCOCC(=O)O; Aib = CC(C)(N)C(=O)O

Experiments:
Type in all cases: functional, cell-based
[1] = target: T1, Glucagon-like peptide 1 receptor (Homo sapiens, UniProt P43220); experiment: Agonist activity at human GLP-1 receptor expressed in HEK293 cells assessed as cAMP level measured after 60 mins by HTRF based assay
Glucagon receptor [2] = target: T2, Glucagon receptor (Homo sapiens, UniProt P47871); experiment: Agonist activity at human GCGR expressed in HEK293 cells assessed as cAMP level by measuring relative percent (glucagon EC50/compound EC50) measured after 60 mins by HTRF based assay relative to glucagon
[3] = target: T1, Glucagon-like peptide 1 receptor; experiment: Agonist activity at human GLP-1 receptor expressed in HEK293 cells assessed as cAMP level by measuring relative percent (GLP-1 EC50/compound EC50) measured after 60 mins by HTRF based assay relative to GLP-1
Glucagon receptor [4] = target: T2, Glucagon receptor; experiment: Agonist activity at human GCGR expressed in HEK293 cells assessed as cAMP level measured after 60 mins by HTRF based assay
[5] = target: T3, Gastric inhibitory polypeptide receptor (Homo sapiens, UniProt P48546); experiment: Agonist activity at human GIPR receptor expressed in HEK293 cells assessed as cAMP level measured after 60 mins by HTRF based assay
T3 sequence (P48546 whole entry): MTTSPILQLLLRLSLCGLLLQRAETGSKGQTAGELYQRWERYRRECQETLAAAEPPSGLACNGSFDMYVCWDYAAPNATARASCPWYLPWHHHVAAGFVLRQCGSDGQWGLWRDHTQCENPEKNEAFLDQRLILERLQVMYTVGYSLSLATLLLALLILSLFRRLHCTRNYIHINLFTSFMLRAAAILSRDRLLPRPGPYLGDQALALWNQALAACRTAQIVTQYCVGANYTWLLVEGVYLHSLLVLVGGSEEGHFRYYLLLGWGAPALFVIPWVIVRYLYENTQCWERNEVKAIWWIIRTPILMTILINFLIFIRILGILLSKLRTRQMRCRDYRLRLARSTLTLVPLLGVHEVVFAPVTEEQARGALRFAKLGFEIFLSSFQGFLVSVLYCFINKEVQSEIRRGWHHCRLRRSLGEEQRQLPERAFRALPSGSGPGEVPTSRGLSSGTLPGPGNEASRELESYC

[6] = target: T4, Gastric inhibitory polypeptide receptor (Homo sapiens) (UniProt P48546); experiment: Agonist activity at human GIPR receptor expressed in HEK293 cells assessed as cAMP level by measuring relative percent (GIP EC50/compound EC50) measured after 60 mins by HTRF based assay relative to GIP
T4 sequence (whole entry): T3 sequence (P48546 whole entry)

T2 sequence (P47871 whole entry): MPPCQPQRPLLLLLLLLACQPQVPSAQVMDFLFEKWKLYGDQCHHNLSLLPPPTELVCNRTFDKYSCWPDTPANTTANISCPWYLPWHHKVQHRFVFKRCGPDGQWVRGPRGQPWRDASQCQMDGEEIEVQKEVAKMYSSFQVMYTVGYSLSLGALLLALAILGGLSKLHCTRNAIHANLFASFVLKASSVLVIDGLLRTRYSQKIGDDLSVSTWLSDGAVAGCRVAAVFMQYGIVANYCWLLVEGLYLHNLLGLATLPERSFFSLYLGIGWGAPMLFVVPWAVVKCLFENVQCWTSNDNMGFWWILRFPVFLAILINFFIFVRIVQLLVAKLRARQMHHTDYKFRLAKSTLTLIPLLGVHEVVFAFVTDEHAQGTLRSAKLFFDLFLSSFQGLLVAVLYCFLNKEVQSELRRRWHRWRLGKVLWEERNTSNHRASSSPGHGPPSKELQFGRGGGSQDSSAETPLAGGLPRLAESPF
T1 sequence (P43220 whole entry): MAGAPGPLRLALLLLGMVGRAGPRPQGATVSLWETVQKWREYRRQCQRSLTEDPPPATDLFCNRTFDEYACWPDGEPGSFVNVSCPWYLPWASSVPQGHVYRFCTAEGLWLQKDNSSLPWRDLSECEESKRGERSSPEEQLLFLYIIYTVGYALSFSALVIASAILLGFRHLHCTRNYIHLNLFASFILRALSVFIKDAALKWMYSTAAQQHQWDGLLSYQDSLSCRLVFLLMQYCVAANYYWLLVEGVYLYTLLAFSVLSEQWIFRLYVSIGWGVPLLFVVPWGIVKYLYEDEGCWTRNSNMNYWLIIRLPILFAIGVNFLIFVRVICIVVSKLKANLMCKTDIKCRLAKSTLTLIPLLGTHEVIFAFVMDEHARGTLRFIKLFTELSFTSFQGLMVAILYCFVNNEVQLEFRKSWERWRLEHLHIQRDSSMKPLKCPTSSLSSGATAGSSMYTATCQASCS

Row | Activity [3] [%] | Compound | EC50 [1] [nM] | Activity (Glucagon receptor [2]) [%] | Activity ([3]; filed as agonist) [%] | EC50 (Glucagon receptor [4]) [nM] | EC50 [5] [nM] | Activity [6] [%] | Activity (Glucagon receptor [2]; filed as agonist) [%]
1 | – | CCCCCCCCCCCCCCCC(=O)N[C@@H](CCC(=O)NCCCC[C@H](NC(=O)[C@H](CO)NC(=O)[C@@H]1CCCN1C(=O)[C@@H]1CCCN1C(=O)[C@@H]1CCCN1C(=O)[C@H](C)NC(=O)CNC(=O)[C@H](CO)NC(=O)[C@H](CO)NC(=O)[C@@H]1CCCN1C(=O)CNC(=O)CNC(=O)[C@H](CC(N)=O)NC(=O)[C@H](CCCCN)NC(=O)[C@H](CC(C)C)NC(=O)[C@H](Cc1c[nH]c2ccccc12)NC(=O)[C@H](CC(=O)O)NC(=O)[C@@H](NC(=O)[C@H](Cc1ccccc1)NC(=O)[C@H](CC(=O)O)NC(=O)[C@H](CCC(N)=O)NC(=O)[C@H](C)NC(=O)[C@H](CCCNC(=N)N)NC(=O)[C@H](CCCNC(=N)N)NC(=O)[C@H](CO)NC(=O)[C@H](CC(=O)O)NC(=O)[C@H](CC(C)C)NC(=O)[C@H](Cc1ccc(O)cc1)NC(=O)[C@H](CCCCN)NC(=O)[C@H](CO)NC(=O)[C@H](CCSC)NC(=O)[C@H](CC(=O)O)NC(=O)[C@H](CO)NC(=O)[C@@H](NC(=O)[C@H](Cc1ccccc1)NC(=O)[C@@H](NC(=O)CNC(=O)[C@H](CCC(N)=O)NC(=O)[C@H](CO)NC(=O)[C@@H](N)Cc1c[nH]cn1)[C@@H](C)O)[C@@H](C)O)C(C)C)C(N)=O)C(=O)O (H-HSQGTFTSDMSKYLDSRRAQDFVDWLKNGGPSSGAPPPSK([γGlu-Palmitoyl])-NH2) | 0.068 | 17 | 78 | 0.53 | – | – | –
2 | – | CC[C@H](C)[C@H](NC(=O)[C@H](CCCCNC(=O)COCCOCCNC(=O)COCCOCCNC(=O)CC[C@H](NC(=O)CCCCCCCCCCCCCCCCC(=O)O)C(=O)O)NC(=O)[C@H](CCC(=O)O)NC(=O)[C@H](CC(C)C)NC(=O)[C@H](C)NC(=O)[C@H](CCCNC(=N)N)NC(=O)[C@H](CO)NC(=O)[C@H](CC(C)C)NC(=O)[C@H](CC(=O)O)NC(=O)[C@H](CO)NC(=O)[C@@H](NC(=O)[C@H](Cc1ccccc1)NC(=O)[C@@H](NC(=O)CNC(=O)[C@H](CCC(N)=O)NC(=O)C(C)(C)NC(=O)[C@@H](N)Cc1c[nH]cn1)[C@@H](C)O)[C@@H](C)O)C(=O)N[C@@H](C)C(=O)N[C@@H](C)C(=O)N[C@@H](CCCNC(=N)N)C(=O)N[C@@H](CC(C)C)C(=O)N[C@@H](Cc1ccccc1)C(=O)N[C@H](C(=O)N[C@@H](CCC(=O)O)C(=O)N[C@@H](Cc1c[nH]c2ccccc12)C(=O)N[C@@H](CC(C)C)C(=O)N[C@H](C(=O)N[C@@H](CCC(=O)O)C(=O)NCC(=O)NCC(=O)N1CCC[C@H]1C(=O)N[C@@H](CO)C(=O)N[C@@H](CO)C(=O)NCC(=O)N[C@@H](C)C(=O)N1CCC[C@H]1C(=O)N1CCC[C@H]1C(=O)N1CCC[C@H]1C(=O)N[C@@H](CO)C(N)=O)[C@@H](C)CC)[C@@H](C)CC (H-H[Aib]QGTFTSDLSRALEK([AEEA-AEEA-γGlu-C18 diacid])IAARLFIEWLIEGGPSSGAPPPS-NH2) | 0.022 | 5 | 241 | 1.8 | 0.97 | 3 | –
3 | – | CC[C@H](C)[C@H](NC(=O)[C@H](CCCCNC(=O)COCCOCCNC(=O)COCCOCCNC(=O)CC[C@H](NC(=O)CCCCCCCCCCCCCCCCC(=O)O)C(=O)O)NC(=O)[C@H](CCC(=O)O)NC(=O)[C@H](CCSC)NC(=O)[C@H](C)NC(=O)[C@H](CCCNC(=N)N)NC(=O)[C@H](CO)NC(=O)[C@H](CC(C)C)NC(=O)[C@H](CC(=O)O)NC(=O)[C@H](CO)NC(=O)[C@@H](NC(=O)[C@H](Cc1ccccc1)NC(=O)[C@@H](NC(=O)CNC(=O)[C@H](CCC(N)=O)NC(=O)C(C)(C)NC(=O)[C@@H](N)Cc1c[nH]cn1)[C@@H](C)O)[C@@H](C)O)C(=O)N[C@@H](C)C(=O)N[C@H](C(=O)N[C@@H](CCCNC(=N)N)C(=O)N[C@@H](CC(C)C)C(=O)N[C@@H](Cc1ccccc1)C(=O)N[C@H](C(=O)N[C@@H](CCC(=O)O)C(=O)N[C@@H](Cc1c[nH]c2ccccc12)C(=O)N[C@@H](CC(C)C)C(=O)N[C@H](C(=O)N[C@@H](CCC(=O)O)C(=O)NCC(=O)NCC(=O)N1CCC[C@H]1C(=O)N[C@@H](CO)C(=O)N[C@@H](CO)C(=O)NCC(=O)N[C@@H](C)C(=O)N1CCC[C@H]1C(=O)N1CCC[C@H]1C(=O)N1CCC[C@H]1C(=O)N[C@@H](CO)C(N)=O)[C@@H](C)CC)[C@@H](C)CC)C(C)C (H-H[Aib]QGTFTSDLSRAMEK([AEEA-AEEA-γGlu-C18 diacid])IAVRLFIEWLIEGGPSSGAPPPS-NH2) | 0.03 | 4 | 177 | 2.6 | 0.99 | 3 | –
4 | – | CC[C@H](C)[C@H](NC(=O)[C@H](CCCCNC(=O)COCCOCCNC(=O)COCCOCCNC(=O)CC[C@H](NC(=O)CCCCCCCCCCCCCCCCCCC(=O)O)C(=O)O)NC(=O)[C@H](CCC(=O)O)NC(=O)[C@H](CC(C)C)NC(=O)[C@H](C)NC(=O)[C@H](CCCNC(=N)N)NC(=O)[C@H](CO)NC(=O)[C@H](CCSC)NC(=O)[C@H](CC(=O)O)NC(=O)[C@H](CO)NC(=O)[C@@H](NC(=O)[C@H](Cc1ccccc1)NC(=O)[C@@H](NC(=O)CNC(=O)[C@H](CCC(N)=O)NC(=O)C(C)(C)NC(=O)[C@@H](N)Cc1c[nH]cn1)[C@@H](C)O)[C@@H](C)O)C(=O)N[C@@H](C)C(=O)N[C@@H](C)C(=O)N[C@@H](CCCNC(=N)N)C(=O)N[C@@H](CC(C)C)C(=O)N[C@@H](Cc1ccccc1)C(=O)N[C@H](C(=O)N[C@@H](CC(=O)O)C(=O)N[C@@H](Cc1c[nH]c2ccccc12)C(=O)N[C@@H](CC(C)C)C(=O)N[C@H](C(=O)N[C@@H](CCC(=O)O)C(=O)NCC(=O)NCC(=O)N1CCC[C@H]1C(=O)N[C@@H](CO)C(=O)N[C@@H](CO)C(=O)NCC(=O)N[C@@H](C)C(=O)N1CCC[C@H]1C(=O)N1CCC[C@H]1C(=O)N1CCC[C@H]1C(=O)N[C@@H](CO)C(N)=O)[C@@H](C)CC)C(C)C (H-H[Aib]QGTFTSDMSRALEK([AEEA-AEEA-γGlu-C20 diacid])IAARLFVDWLIEGGPSSGAPPPS-NH2) | 0.018 | 17 | 294 | 0.53 | 0.96 | 3 | –
5 | 7 | H-HSQGTFTSDMSKYLDSRRAQDFVDWLIKG-NH2 | 0.81 | 4 | – | 2.6 | – | – | –
6 | 19 | H-HSQGTFTSDMSKYLDSRRAQDFVDWLIKGR-NH2 | 0.28 | 5 | – | 1.8 | – | – | –
7 | – | H-HSQGTFTSDMSKYLDSRRAQDFVDWLIKGRNRNNIA-NH2 | 0.091 | – | 58 | 0.18 | – | – | 51
8 | – | H-HSQGTFTSDMSKYLDSRRAQDFVDWLIKGRPSSGAPPPS-NH2 | 0.13 | 10 | 41 | 0.91 | – | – | –
9 | – | H-HSQGTFTSDMSKYLDSRRAQDFVDWLKNGGPSSGAPPPS-NH2 | 0.016 | – | 331 | 0.052 | – | – | 177
10 | 5 | H-HSQGTFTSDMSSYLDSRRAQDFVDWLIKGR-NH2 | 0.7 | 3 | – | 3.1 | – | – | –
11 | – | H-HSQGTFTSDMSSYLDSRRAQDFVDWLKNGGPSSGAPPPS-NH2 | 0.061 | – | 87 | 0.15 | – | – | 61
12 | 6 | H-HSQGTFTSDMSSYLDSRRAQDFVDWLMNT-NH2 | 0.96 | 18 | – | 0.51 | – | – | –
13 | – | H-HSQGTFTSDMSSYLDSRRAQDFVDWLMNTKRNRNNIA-NH2 | 0.11 | 11 | 45 | 0.85 | – | – | –
14 | 6 | H-HSQGTFTSDMSSYLDSRRAQEFVDWLIKGR-NH2 | 0.87 | 3 | – | 3.5 | – | – | –

Row | Compound | Activity [3] [%] | EC50 [1] [nM] | Activity (Glucagon receptor [2]) [%] | Activity ([3]; filed as agonist) [%] | EC50 (Glucagon receptor [4]) [nM] | EC50 [5] [nM] | Activity [6] [%] | Activity (Glucagon receptor [2]; filed as agonist) [%]
15 | H-HSQGTFTSDMSSYLDSRRAQDFVDWLIKGRPSSGAPPPS-NH2 | 25 | 0.21 | 5 | – | 1.8 | – | – | –
